Numbers after ± are expanded uncertainties.
Details: 303.14 K, Liquid, Vibrating tube method

CCCCCCC(=O)OCC(COC(=O)CCCCCC)(COC(=O)CCCCCC)COC(=O)CCCCCC [pentaerythritol tetraheptanoate]
Details | mass density [kg/m3]
8357.2 kPa | 975.8 ± 1.2
8381 kPa | 975.9 ± 1.2
8405.1 kPa | 976 ± 1.2
8433.4 kPa | 976 ± 1.2
8458.1 kPa | 975.9 ± 1.2
8483.1 kPa | 976.1 ± 1.2
8509.4 kPa | 976 ± 1.2
8533.9 kPa | 976.1 ± 1.2
8563.4 kPa | 976 ± 1.2
8587.9 kPa | 976.2 ± 1.2
8617.9 kPa | 976 ± 1.2
8643.4 kPa | 976.1 ± 1.2
8668.9 kPa | 976.1 ± 1.2
8700 kPa | 976.2 ± 1.2
8725.8 kPa | 976.1 ± 1.2
8751.7 kPa | 976.1 ± 1.2
8777.7 kPa | 976.2 ± 1.2
8810 kPa | 976.2 ± 1.2
8838.3 kPa | 976.2 ± 1.2
8865.8 kPa | 976.3 ± 1.2
8892.5 kPa | 976.1 ± 1.2
8925.3 kPa | 976.3 ± 1.2
8952.3 kPa | 976.3 ± 1.2
8979 kPa | 976.3 ± 1.2
9006.6 kPa | 976.4 ± 1.2
9039.6 kPa | 976.3 ± 1.2
9067.1 kPa | 976.3 ± 1.2
9100.6 kPa | 976.4 ± 1.2
9129 kPa | 976.4 ± 1.2
9157.8 kPa | 976.5 ± 1.2
9191.8 kPa | 976.5 ± 1.2
9221.4 kPa | 976.5 ± 1.2
9250.2 kPa | 976.4 ± 1.2
9279.1 kPa | 976.4 ± 1.2
9315 kPa | 976.4 ± 1.2
9344.1 kPa | 976.6 ± 1.2
9374.1 kPa | 976.5 ± 1.2
9409.9 kPa | 976.5 ± 1.2
9439.9 kPa | 976.6 ± 1.2
9476.4 kPa | 976.6 ± 1.2
9507.3 kPa | 976.7 ± 1.2
9537.9 kPa | 976.6 ± 1.2
9575 kPa | 976.6 ± 1.2
9606.3 kPa | 976.8 ± 1.2
9638.6 kPa | 976.8 ± 1.2
9670.4 kPa | 976.7 ± 1.2
9708.9 kPa | 976.7 ± 1.2
9741.1 kPa | 976.9 ± 1.2
9780.3 kPa | 976.8 ± 1.2
9813.2 kPa | 976.9 ± 1.2
9846 kPa | 976.7 ± 1.2
9879 kPa | 976.9 ± 1.2
9918.8 kPa | 976.9 ± 1.2
9952.1 kPa | 976.9 ± 1.2
9992 kPa | 977 ± 1.2
10026 kPa | 976.8 ± 1.2
10061 kPa | 976.9 ± 1.2
10103 kPa | 977.1 ± 1.2
10139 kPa | 977 ± 1.2
10174 kPa | 977 ± 1.2
10209 kPa | 977.2 ± 1.2
10252 kPa | 977.1 ± 1.2
10288 kPa | 977 ± 1.2
10325 kPa | 977.2 ± 1.2
10369 kPa | 977.2 ± 1.2
10405 kPa | 977.1 ± 1.2
10449 kPa | 977.2 ± 1.2
10486 kPa | 977.2 ± 1.2
10525 kPa | 977.2 ± 1.2
10571 kPa | 977.3 ± 1.2
10610 kPa | 977.3 ± 1.2
10649 kPa | 977.3 ± 1.2
10688 kPa | 977.4 ± 1.2
10736 kPa | 977.4 ± 1.2
10775 kPa | 977.3 ± 1.2
10823 kPa | 977.4 ± 1.2
10864 kPa | 977.4 ± 1.2
10906 kPa | 977.6 ± 1.2
10949 kPa | 977.4 ± 1.2
11001 kPa | 977.6 ± 1.2
11045 kPa | 977.5 ± 1.2
11086 kPa | 977.5 ± 1.2
11124 kPa | 977.6 ± 1.2
11150 kPa | 977.6 ± 1.2
11180 kPa | 977.6 ± 1.2
11206 kPa | 977.7 ± 1.2
11232 kPa | 977.6 ± 1.2
11290 kPa | 977.6 ± 1.2
11316 kPa | 977.6 ± 1.2
11343 kPa | 977.8 ± 1.2
11375 kPa | 977.6 ± 1.2
11402 kPa | 977.7 ± 1.2
11490 kPa | 977.7 ± 1.2
11519 kPa | 977.9 ± 1.2
11574 kPa | 977.9 ± 1.2
11609 kPa | 978 ± 1.2
11637 kPa | 977.8 ± 1.2
11668 kPa | 977.9 ± 1.2
11691 kPa | 977.8 ± 1.2
11715 kPa | 977.9 ± 1.2
11767 kPa | 978.1 ± 1.2
11791 kPa | 978 ± 1.2
11816 kPa | 978 ± 1.2
11847 kPa | 978 ± 1.2
11871 kPa | 977.9 ± 1.2
11896 kPa | 978.1 ± 1.2
11920 kPa | 978.1 ± 1.2
11950 kPa | 978 ± 1.2
11975 kPa | 978.1 ± 1.2
12000 kPa | 978.2 ± 1.2
12031 kPa | 978.2 ± 1.2
12057 kPa | 978 ± 1.2
12083 kPa | 978.2 ± 1.2
12110 kPa | 978.1 ± 1.2
12130 kPa | 978.2 ± 1.2
12151 kPa | 978.2 ± 1.2
12176 kPa | 978.3 ± 1.2
12197 kPa | 978.3 ± 1.2
12218 kPa | 978.2 ± 1.2
12240 kPa | 978.3 ± 1.2
12266 kPa | 978.3 ± 1.2
12285 kPa | 978.3 ± 1.2
12300 kPa | 978.3 ± 1.2
12304 kPa | 978.3 ± 1.2
12305 kPa | 978.4 ± 1.2
12331 kPa | 978.3 ± 1.2
12497 kPa | 978.4 ± 1.2
12525 kPa | 978.5 ± 1.2
12546 kPa | 978.5 ± 1.2
12565 kPa | 978.5 ± 1.2
12583 kPa | 978.5 ± 1.2
12606 kPa | 978.4 ± 1.2
12624 kPa | 978.5 ± 1.2
12646 kPa | 978.5 ± 1.2
12665 kPa | 978.5 ± 1.2
12684 kPa | 978.4 ± 1.2
12707 kPa | 978.5 ± 1.2
12725 kPa | 978.6 ± 1.2
12748 kPa | 978.5 ± 1.2
12768 kPa | 978.7 ± 1.2
12787 kPa | 978.5 ± 1.2
12806 kPa | 978.5 ± 1.2
12829 kPa | 978.6 ± 1.2
12849 kPa | 978.6 ± 1.2
12868 kPa | 978.8 ± 1.2
12887 kPa | 978.6 ± 1.2
12911 kPa | 978.6 ± 1.2
12930 kPa | 978.7 ± 1.2
12950 kPa | 978.7 ± 1.2
12974 kPa | 978.7 ± 1.2
12993 kPa | 978.7 ± 1.2
13017 kPa | 978.8 ± 1.2
13037 kPa | 978.7 ± 1.2
13057 kPa | 978.8 ± 1.2
13081 kPa | 978.8 ± 1.2
13101 kPa | 978.8 ± 1.2
13145 kPa | 978.7 ± 1.2
13166 kPa | 978.8 ± 1.2
13186 kPa | 978.9 ± 1.2
13211 kPa | 978.9 ± 1.2
13231 kPa | 978.9 ± 1.2
13252 kPa | 978.8 ± 1.2
13277 kPa | 978.9 ± 1.2
13298 kPa | 978.9 ± 1.2
13319 kPa | 978.9 ± 1.2
13340 kPa | 978.9 ± 1.2
13366 kPa | 979 ± 1.2
13387 kPa | 978.9 ± 1.2
13408 kPa | 978.9 ± 1.2
13429 kPa | 979.1 ± 1.2
13454 kPa | 979 ± 1.2
13476 kPa | 979 ± 1.2
13501 kPa | 979 ± 1.2
13523 kPa | 979.1 ± 1.2
13544 kPa | 979.1 ± 1.2
13592 kPa | 979 ± 1.2
13615 kPa | 979 ± 1.2
13637 kPa | 979.1 ± 1.2
13660 kPa | 979.1 ± 1.2
13686 kPa | 979.2 ± 1.2
13708 kPa | 979.1 ± 1.2
13730 kPa | 979.1 ± 1.2
13757 kPa | 979.1 ± 1.2
13779 kPa | 979.3 ± 1.2
13802 kPa | 979.2 ± 1.2
13828 kPa | 979.3 ± 1.2
13851 kPa | 979.2 ± 1.2
13949 kPa | 979.3 ± 1.2
13996 kPa | 979.4 ± 1.2
14023 kPa | 979.3 ± 1.2
14047 kPa | 979.3 ± 1.2
14070 kPa | 979.5 ± 1.2
14098 kPa | 979.3 ± 1.2
14121 kPa | 979.4 ± 1.2
14145 kPa | 979.5 ± 1.2
14174 kPa | 979.4 ± 1.2
14198 kPa | 979.4 ± 1.2
14247 kPa | 979.4 ± 1.2
14276 kPa | 979.4 ± 1.2
14300 kPa | 979.4 ± 1.2
14353 kPa | 979.5 ± 1.2
14378 kPa | 979.5 ± 1.2
14402 kPa | 979.5 ± 1.2
14432 kPa | 979.5 ± 1.2
14700 kPa | 979.8 ± 1.2
14725 kPa | 979.9 ± 1.2
14756 kPa | 979.8 ± 1.2
14782 kPa | 979.7 ± 1.2
14808 kPa | 979.7 ± 1.2
15038 kPa | 979.8 ± 1.2
15065 kPa | 980.1 ± 1.2
15092 kPa | 980 ± 1.2
15119 kPa | 979.9 ± 1.2
15152 kPa | 980.1 ± 1.2
15207 kPa | 980 ± 1.2
15241 kPa | 980 ± 1.2
15297 kPa | 980 ± 1.2
15386 kPa | 980.1 ± 1.2
15420 kPa | 980.1 ± 1.2
15448 kPa | 980.2 ± 1.2
15477 kPa | 980.2 ± 1.2
15539 kPa | 980.1 ± 1.2
15568 kPa | 980.2 ± 1.2
15602 kPa | 980.2 ± 1.2

Reference: the NIST ThermoML archive (doi:10.1021/je060271a)
